Here are results for 43 compounds from US8338465B2, “Cyclic carboxylic acid rhodanine derivatives for the treatment and prevention of tuberculosis” (priority 2006, dated 2012).

This assay deals with T1, dihydrolipoamide acyltransferase (DlaT) (Mycobacterium tuberculosis, UniProt P9WIS7).
T1 sequence (P9WIS7 1-553): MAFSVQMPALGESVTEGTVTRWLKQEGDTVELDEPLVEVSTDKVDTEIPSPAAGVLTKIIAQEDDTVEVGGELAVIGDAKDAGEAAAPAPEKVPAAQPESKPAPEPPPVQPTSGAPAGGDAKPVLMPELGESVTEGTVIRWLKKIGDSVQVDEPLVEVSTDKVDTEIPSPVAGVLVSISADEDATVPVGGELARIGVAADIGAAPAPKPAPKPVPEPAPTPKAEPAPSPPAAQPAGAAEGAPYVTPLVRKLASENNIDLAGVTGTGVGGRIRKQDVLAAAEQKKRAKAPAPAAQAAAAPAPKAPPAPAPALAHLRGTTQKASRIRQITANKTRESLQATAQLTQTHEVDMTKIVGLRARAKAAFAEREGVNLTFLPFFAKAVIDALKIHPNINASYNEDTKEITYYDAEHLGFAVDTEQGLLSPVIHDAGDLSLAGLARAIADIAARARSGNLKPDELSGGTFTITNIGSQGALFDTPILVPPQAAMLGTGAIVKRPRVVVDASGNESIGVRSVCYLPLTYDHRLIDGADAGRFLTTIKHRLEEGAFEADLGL
The assay is described as follows: DlaT inhibition (Dlat IC50); DTNB peroxidase assay with Lpd, DlaT and AhpD. Format: biochemical.

Where [1] appears, read: Dlat IC50 category, Table 21, Prodrugs (Examples U1 to U10).
Setting [2] is: Table 1, Compounds A1 to A294, read-out: Dlat IC50 category.

Where two headings read alike, the source gives them in different places.

For orientation: IC50 means the midpoint of a concentration-inhibition curve. As to `CNS(=O)(=O)c1ccc(-c2ccc(C=C3SC(=S)N(C4CCCC(C(=O)OCCCO)C4)C3=O)o2)cc1` (stereo not shown) [Compound U2, 3-{5-[1-[5-(4-Methylsulfamoyl-phenyl)-furan-2-yl]-methylidene]-4-oxo-2-thioxo-thiazolidin-3-yl}-cyclohexanecarboxylic acid 3-hydroxy-propyl ester], under setting [1], the IC50 was in the range of 11 to 40 µM.

For `Cc1ccc(-c2cccc(C=C3SC(=S)N(C4CCCC(C(=O)O)C4)C3=O)c2)cc1` (stereo not shown) [Compound C68, 3-{5-[1-(4′-methyl-biphenyl-3-yl)-methylidene]-4-oxo-2-thioxo-thiazolidin-3-yl}cyclohexanecarboxylic acid], where the note is “Dlat IC50 category”, the IC50 lay within 41 to 80 µM. Take `CS(=O)(=O)c1ccc(-c2ccc(C=C3SC(=S)N(C4CCCC(C(=O)OCCCO)C4)C3=O)o2)cc1` (stereo not shown) [Compound U9, 3-{5-[1-[5-(4-Methanesulfonyl-phenyl)-furan-2-yl]-methylidene]-4-oxo-2-thioxo-thiazolidin-3-yl}-cyclohexanecarboxylic acid 3-hydroxy-propyl ester]: the 50% inhibitory concentration (IC50) under setting [1] lay in the range of 41 to 80 µM. As for `O=C(O)c1cccc(N2C(=O)C(=Cc3ccc(-c4ccc(Br)cc4)o3)SC2=S)c1` [Compound A123], the IC50 under setting [2] was in the range of 11 to 40 µM.

`COc1ccc(-c2ccc(C=C3SC(=S)N(c4cccc(C(=O)O)c4)C3=O)o2)c(OC)c1` [Compound A167]: the IC50 under setting [2] is below 10 µM.

Turning to `O=C(O)C(c1ccccc1)N1C(=O)C(=Cc2ccc(-c3ccc(Cl)cc3Cl)o2)SC1=S` (stereo not shown) [Compound B44], the IC50 (Dlat IC50 category) is below 10 µM. The compound `O=C(O)C1CCCC(N2C(=O)C(=Cc3ccc(-c4ccccc4Oc4ccccc4)o3)SC2=S)C1` (stereo not shown) [Compound C34, 3-{4-oxo-5-[1-[5-(2-phenoxy-phenyl)-furan-2-yl]-methylidene]-2-thioxo-thiazolidin-3-yl}-cyclohexanecarboxylic acid] yielded an IC50 (Dlat IC50 category) below 10 µM. Turning to `CC(C)Cc1ccc(-c2ccc(C=C3SC(=S)N(CC(=O)O)C3=O)o2)cc1` [Compound B77], the IC50 (Dlat IC50 category) is below 10 µM. Under “Dlat IC50 category”, `O=C(O)C1CCCC(N2C(=O)C(=Cc3ccc(-c4ccccc4F)o3)SC2=S)C1` (stereo not shown) [Compound C41, 3-{5-[1-[5-(2-fluoro-phenyl)-furan-2-yl]-methylidene]-4-oxo-2-thioxo-thiazolidin-3-yl}-cyclohexanecarboxylic acid] had a concentration for half-maximal inhibition (IC50) below 10 µM. As for `O=C(O)c1cccc(N2C(=O)C(=Cc3nc(-c4ccccc4)cs3)SC2=S)c1` [Compound A251], the IC50 under setting [2] lay within 11 to 40 µM.

Under “Dlat IC50 category”, `Cc1ccc(-c2ccc(C=C3SC(=S)N(Nc4ccccc4C(=O)O)C3=O)o2)cc1` [Compound D13, 2-{4-oxo-2-thioxo-5-[1-(5-p-tolyl-furan-2-yl)-methylidene]-thiazolidin-3-ylamino}-benzoic acid] returned an IC50 below 10 µM. In the case of `NS(=O)(=O)c1ccc(N2C(=O)C(=Cc3ccc(-c4ccc(Cl)cc4)o3)SC2=S)cc1` [Compound A17], the IC50 under setting [2] was 11 to 40 µM. On the same count and under the same terms, next, `O=C(O)c1cccc(N2C(=O)C(=Cc3ccc(-c4cccc(C(F)(F)F)c4)o3)SC2=S)c1` [Compound A2]: below 10 µM. In the case of `CC(=O)c1ccc(-c2ccc(C=C3SC(=S)N(Nc4ccccc4C(=O)O)C3=O)o2)cc1` [Compound D42, 2-{5-[1-[5-(4-acetyl-phenyl)-furan-2-yl]-methylidene]-4-oxo-2-thioxo-thiazolidin-3-ylamino}-benzoic acid], the IC50 (Dlat IC50 category) was below 10 µM. As to `Cc1ccc(C(=O)O)cc1N1C(=O)C(=Cc2ccc(-c3ccc(C4CCCCC4)cc3)o2)SC1=S` [Compound A82], under setting [2], the IC50 is below 10 µM.

Compound `CC(C)C(C(=O)O)N1C(=O)C(=Cc2ccc(-c3ccc(Cl)cc3Cl)o2)SC1=S` (stereo not shown) [Compound B108] registered an IC50 (Dlat IC50 category) below 10 µM. Regarding `O=C(O)c1cccc(CCN2C(=O)C(=Cc3ccc(-c4cc(C(F)(F)F)ccc4Cl)o3)SC2=S)c1` [Compound G3], the IC50 (Dlat IC50 category, Table 7, Compounds G1 to G4) is below 10 µM.

Turning to `CCCCOc1ccc(-c2ccc(C=C3SC(=S)N(C4CCC(C(=O)O)CC4)C3=O)o2)cc1` (stereo not shown) [Compound C57, 4-{5-[1-[5-(4-butoxy-phenyl)-furan-2-yl]-methylidene]-4-oxo-2-thioxo-thiazolidin-3-yl}-cyclohexanecarboxylic acid], the concentration for half-maximal inhibition (IC50) (Dlat IC50 category) was in the range of 11 to 40 µM.

Turning to `Cc1cc(N(C)C)ccc1-c1ccc(C=C2SC(=S)N(c3cccc(C(=O)O)c3)C2=O)o1` [Compound A182], under setting [2], the IC50 is below 10 µM.

In the case of `Cc1c(C(=O)O)cccc1N1C(=O)C(=Cc2ccc(-c3c(Cl)cccc3Cl)o2)SC1=S` [Compound A112], the IC50 under setting [2] was below 10 µM. Regarding `O=C(O)C1CCC(N2C(=O)C(=Cc3ccc(-c4ccccc4Cl)o3)SC2=S)CC1` (stereo not shown) [Compound C16, 4-{5-[1-[5-(2-chloro-phenyl)-furan-2-yl]-methylidene]-4-oxo-2-thioxo-thiazolidin-3-yl}-cyclohexanecarboxylic acid], the concentration for half-maximal inhibition (IC50) (Dlat IC50 category) was below 10 µM. The same measure, in the same setting: next, `O=C(O)CCCCCN1C(=O)C(=Cc2ncc(-c3cccc(Cl)c3)o2)SC1=S` [Compound B34]: 11 to 40 µM. On to `CCCCc1ccc(-c2ccc(C=C3SC(=S)N(c4cc(C(=O)O)cc(C(F)(F)F)c4)C3=O)o2)cc1` [Compound A266], for which the IC50 under setting [2] is below 10 µM. Under “Dlat IC50 category, Table 17, Compounds Q1 to Q9”, `O=C(O)c1cccc(N2C(=O)C(=Cc3ccc(-c4cncnc4)o3)SC2=S)c1` [Compound Q1] registered an IC50 of 11 to 40 µM. In the case of `COc1ccc(-c2ccc(C=C3SC(=S)N(C4CCCC(C(=O)O)C4)C3=O)o2)c(OC)c1` (stereo not shown) [Compound C19, 3-{5-[1-[5-(2,4-dimethoxy-phenyl)-furan-2-yl]-methylidene]-4-oxo-2-thioxo-thiazolidin-3-yl}-cyclohexanecarboxylic acid], the IC50 (Dlat IC50 category) was below 10 µM. Turning to `CC(C)(C)c1ccc(-c2ccc(C=C3SC(=S)N(C4CCCC(C(=O)O)C4)C3=O)o2)cc1` (stereo not shown) [Compound C3, 3-{5-[1-[5-(4-tert-butyl-phenyl)-furan-2-yl]-methylidene]-4-oxo-2-thioxo-thiazolidin-3-yl}-cyclohexanecarboxylic acid], the concentration for half-maximal inhibition (IC50) (Dlat IC50 category) was below 10 µM.

With `O=C(O)c1cc(N2C(=O)C(=Cc3ccc(-c4ccc(Cl)cc4Cl)o3)SC2=S)ccc1O` [Compound A40], the IC50 under setting [2] is 11 to 40 µM.

As to `Cc1ccccc1-c1cccc(C=C2SC(=S)N(c3cc(C(=O)O)ccc3F)C2=O)c1` [Compound A174], the IC50 under setting [2] is below 10 µM. As to `COc1ccc(-c2ccc(C=C3SC(=S)N(c4cccc(C(=O)O)c4)C3=O)o2)cc1` [Compound A152], under setting [2], the IC50 was in the range of 11 to 40 µM. For `O=C(O)C(c1ccccc1)N1C(=O)C(=Cc2ccc(-c3c(Cl)cccc3Cl)o2)SC1=S` (stereo not shown) [Compound B48], the IC50 (Dlat IC50 category) is below 10 µM.

For the compound `O=C(O)C(Cc1ccccc1)N1C(=O)C(=Cc2ccc(-c3ccc(Cl)cc3)o2)SC1=S` (stereo not shown) [Compound B42], the IC50 (Dlat IC50 category) is below 10 µM.

The compound `Cc1cc(F)ccc1-c1ccc(C=C2SC(=S)N(Nc3ccccc3C(=O)O)C2=O)o1` [Compound D10, 2-{5-[1-[5-(4-fluoro-2-methyl-phenyl)-furan-2-yl]-methylidene]-4-oxo-2-thioxo-thiazolidin-3-ylamino}-benzoic acid] gave a concentration for half-maximal inhibition (IC50) (Dlat IC50 category) below 10 µM. For `CN(C)c1ccc(N2C(=O)C(=Cc3ccc(-c4ccccc4Cl)o3)SC2=S)cc1C(=O)O` [Compound A274], the IC50 under setting [2] is 11 to 40 µM. On the same count and under the same terms, next, `O=C(O)CCc1cccc(N2C(=O)C(=Cc3ccc(-c4cccc(Cl)c4)o3)SC2=S)c1` [Compound A119]: below 10 µM.

For the setting “Dlat IC50 category”, `CC(C)c1ccc(-c2ccc(C=C3SC(=S)N(C(Cc4ccccc4)C(=O)O)C3=O)o2)cc1` (stereo not shown) [Compound B67] had an IC50 below 10 µM.

In turn, `O=C(O)c1cncc(N2C(=O)C(=Cc3ccc(-c4ccccc4Cl)o3)SC2=S)c1` [Compound M1] returned an IC50 (Dlat IC50 category, Table 13, Compounds M1 to M4) below 10 µM.

Consider `CC(C)Oc1ccc(-c2ccc(C=C3SC(=S)N(Nc4ccccc4C(=O)O)C3=O)o2)cc1` [Compound D54, 2-{5-[5-(4-isopropoxy-phenyl)-furan-2-ylmethylene]-4-oxo-2-thioxo-thiazolidin-3-ylamino}-benzoic acid], for which the IC50 (Dlat IC50 category) was below 10 µM. As for `CC(C)Cc1ccc(-c2ccc(C=C3SC(=S)N(C4CCCC(C(=O)O)C4)C3=O)o2)cc1` (stereo not shown) [Compound C4, 3-{5-[1-[5-(4-isobutyl-phenyl)-furan-2-yl]methylidene]-4-oxo-2-thioxo-thiazolidin-3-yl}-cyclohexanecarboxylic acid], where the note is “Dlat IC50 category”, the IC50 is below 10 µM. Turning to `O=C(O)c1ccc(-c2ccc(C=C3SC(=S)N(c4ccccc4)C3=O)o2)cc1O` [Compound A289], the IC50 under setting [2] is below 10 µM. Under “Dlat IC50 category”, `O=C(O)C1CCC(N2C(=O)C(=Cc3ccc(-c4cccc(C(F)(F)F)c4)o3)SC2=S)CC1` (stereo not shown) [Compound C17, 4-{5-[1-[5-(3-trifluoromethyl-phenyl)-furan-2-yl]-methylidene]-4-oxo-2-thioxo-thiazolidin-3-yl}-cyclohexanecarboxylic acid] came in with an IC50 below 10 µM.

Turning to `CC(C)C(C(=O)O)N1C(=O)C(=Cc2ccc(-c3cccc(Cl)c3)o2)SC1=S` (stereo not shown) [Compound B102], where the note is “Dlat IC50 category”, the concentration for half-maximal inhibition (IC50) was 11 to 40 µM. In turn, `Cc1ccc(-c2ccc(C=C3SC(=S)N(Nc4ccccc4C(=O)O)C3=O)o2)c(C)c1` [Compound D8, 2-{5-[1-[5-(2,4-dimethyl-phenyl)-furan-2-yl]-methylidene]-4-oxo-2-thioxo-thiazolidin-3-ylamino}-benzoic acid] gave an IC50 (Dlat IC50 category) below 10 µM. Take `CSc1ccc(-c2ccc(C=C3SC(=S)N(c4cccc(C(=O)O)c4)C3=O)o2)cc1` [Compound A238]: the IC50 under setting [2] was below 10 µM.
